Experimental data as given in PubChem BioAssay (NCI).
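How tested: cells in 96-well plates exposed to compound for 48 hours at five concentrations. GI50: concentration for 50% inhibition of growth. TGI marks complete inhibition of growth.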

Assays:
Assay in all cases: NCI tumour cell line growth inhibition, 48 h; in the data active = GI50 below about 0.43 µM; inactive = the rest
EKVX NSCLC = tested on: EKVX NSCLC
RXF 393 renal = tested on: RXF 393 renal
BT-549 breast = tested on: BT-549 breast
A498 renal = tested on: A498 renal
HCT-116 colon = tested on: HCT-116 colon
K-562 leukemia = tested on: K-562 leukemia
T-47D breast = tested on: T-47D breast
NCI-H226 lung = tested on: NCI-H226 lung
NCI-H23 lung = tested on: NCI-H23 lung
786-0 renal = tested on: 786-0 renal
NCI/ADR-RES ovarian = tested on: NCI/ADR-RES ovarian
PC-3 prostate = tested on: PC-3 prostate
SF-268 CNS = tested on: SF-268 CNS
U251 CNS = tested on: U251 CNS
M14 melanoma = tested on: M14 melanoma
SW-620 colon = tested on: SW-620 colon
OVCAR-8 ovarian = tested on: OVCAR-8 ovarian
A549 NSCLC = tested on: A549 NSCLC
COLO 205 colon = tested on: COLO 205 colon
NCI-H460 lung = tested on: NCI-H460 lung
UACC-257 melanoma = tested on: UACC-257 melanoma
MALME-3M melanoma = tested on: MALME-3M melanoma
SK-MEL-28 melanoma = tested on: SK-MEL-28 melanoma
SF-539 CNS = tested on: SF-539 CNS
CCRF-CEM leukemia = tested on: CCRF-CEM leukemia
HT29 colon = tested on: HT29 colon
SN12C renal = tested on: SN12C renal
HOP-62 NSCLC = tested on: HOP-62 NSCLC
MOLT-4 leukemia = tested on: MOLT-4 leukemia
UACC-62 melanoma = tested on: UACC-62 melanoma
RPMI-8226 leukemia = tested on: RPMI-8226 leukemia
ACHN renal = tested on: ACHN renal
SF-295 CNS = tested on: SF-295 CNS
KM12 colon = tested on: KM12 colon
MDA-MB-231 breast = tested on: MDA-MB-231 breast
LOX IMVI melanoma = tested on: LOX IMVI melanoma
OVCAR-5 ovarian = tested on: OVCAR-5 ovarian
OVCAR-4 ovarian = tested on: OVCAR-4 ovarian
UO-31 renal = tested on: UO-31 renal
DU-145 prostate = tested on: DU-145 prostate
MDA-MB-435 = tested on: MDA-MB-435
SK-MEL-2 melanoma = tested on: SK-MEL-2 melanoma
HCT-15 colon = tested on: HCT-15 colon
IGROV1 ovarian = tested on: IGROV1 ovarian
CAKI-1 renal = tested on: CAKI-1 renal
HOP-92 NSCLC = tested on: HOP-92 NSCLC
MCF7 breast = tested on: MCF7 breast
SK-MEL-5 melanoma = tested on: SK-MEL-5 melanoma
HL-60(TB) leukemia = tested on: HL-60(TB) leukemia
HCC-2998 colon = tested on: HCC-2998 colon
SNB-19 CNS = tested on: SNB-19 CNS
NCI-H522 lung = tested on: NCI-H522 lung
TK-10 renal = tested on: TK-10 renal
SNB-75 CNS = tested on: SNB-75 CNS
SK-OV-3 ovarian = tested on: SK-OV-3 ovarian
OVCAR-3 ovarian = tested on: OVCAR-3 ovarian
SR leukemia = tested on: SR leukemia
HS 578T breast = tested on: HS 578T breast

COc1nc(N)nc2c1ncn2[C@@H]1O[C@H](CO)[C@@H](O)[C@@H]1O
> 100 µM: TGI (EKVX NSCLC) | TGI (RXF 393 renal) | TGI (BT-549 breast) | TGI (A498 renal) | TGI (HCT-116 colon) | TGI (K-562 leukemia) | TGI (T-47D breast) | TGI (NCI-H226 lung) | TGI (NCI-H23 lung) | TGI (786-0 renal) | TGI (NCI/ADR-RES ovarian) | TGI (PC-3 prostate) | TGI (SF-268 CNS) | TGI (U251 CNS) | TGI (M14 melanoma) | TGI (SW-620 colon) | TGI (OVCAR-8 ovarian) | TGI (A549 NSCLC) | TGI (COLO 205 colon) | TGI (NCI-H460 lung) | TGI (UACC-257 melanoma) | TGI (MALME-3M melanoma) | TGI (SK-MEL-28 melanoma) | TGI (SF-539 CNS) | TGI (CCRF-CEM leukemia) | TGI (HT29 colon) | TGI (SN12C renal) | TGI (HOP-62 NSCLC) | TGI (MOLT-4 leukemia) | TGI (UACC-62 melanoma) | TGI (RPMI-8226 leukemia) | TGI (ACHN renal) | TGI (SF-295 CNS) | TGI (KM12 colon) | TGI (MDA-MB-231 breast) | TGI (LOX IMVI melanoma) | TGI (OVCAR-5 ovarian) | TGI (OVCAR-4 ovarian) | TGI (UO-31 renal) | TGI (DU-145 prostate) | TGI (MDA-MB-435) | TGI (SK-MEL-2 melanoma) | TGI (HCT-15 colon) | TGI (IGROV1 ovarian) | TGI (CAKI-1 renal) | TGI (HOP-92 NSCLC) | TGI (MCF7 breast) | TGI (SK-MEL-5 melanoma) | TGI (HL-60(TB) leukemia) | TGI (HCC-2998 colon) | TGI (SNB-19 CNS) | TGI (NCI-H522 lung) | TGI (TK-10 renal) | TGI (SNB-75 CNS) | TGI (SK-OV-3 ovarian) | TGI (OVCAR-3 ovarian) | TGI (SR leukemia) | TGI (HS 578T breast)
inactive: GI50 (EKVX NSCLC) > 100 µM | GI50 (RXF 393 renal) > 100 µM | GI50 (BT-549 breast) > 100 µM | GI50 (A498 renal) > 100 µM | GI50 (HCT-116 colon) > 100 µM | GI50 (K-562 leukemia) > 100 µM | GI50 (T-47D breast) > 100 µM | GI50 (NCI-H226 lung) > 100 µM | GI50 (NCI-H23 lung) > 100 µM | GI50 (786-0 renal) > 100 µM | GI50 (NCI/ADR-RES ovarian) > 100 µM | GI50 (PC-3 prostate) > 100 µM | GI50 (SF-268 CNS) > 100 µM | GI50 (U251 CNS) > 100 µM | GI50 (M14 melanoma) > 100 µM | GI50 (SW-620 colon) > 100 µM | GI50 (OVCAR-8 ovarian) > 100 µM | GI50 (A549 NSCLC) > 100 µM | GI50 (COLO 205 colon) > 100 µM | GI50 (NCI-H460 lung) > 100 µM | GI50 (UACC-257 melanoma) > 100 µM | GI50 (MALME-3M melanoma) > 100 µM | GI50 (SK-MEL-28 melanoma) > 100 µM | GI50 (SF-539 CNS) > 100 µM | GI50 (CCRF-CEM leukemia) 2.66 µM | GI50 (HT29 colon) > 100 µM | GI50 (SN12C renal) > 100 µM | GI50 (HOP-62 NSCLC) > 100 µM | GI50 (MOLT-4 leukemia) 9.51 µM | GI50 (UACC-62 melanoma) > 100 µM | GI50 (RPMI-8226 leukemia) > 100 µM | GI50 (ACHN renal) > 100 µM | GI50 (SF-295 CNS) > 100 µM | GI50 (KM12 colon) > 100 µM | GI50 (MDA-MB-231 breast) > 100 µM | GI50 (LOX IMVI melanoma) > 100 µM | GI50 (OVCAR-5 ovarian) > 100 µM | GI50 (OVCAR-4 ovarian) > 100 µM | GI50 (UO-31 renal) > 100 µM | GI50 (DU-145 prostate) > 100 µM | GI50 (MDA-MB-435) > 100 µM | GI50 (SK-MEL-2 melanoma) > 100 µM | GI50 (HCT-15 colon) > 100 µM | GI50 (IGROV1 ovarian) > 100 µM | GI50 (CAKI-1 renal) > 100 µM | GI50 (HOP-92 NSCLC) > 100 µM | GI50 (MCF7 breast) > 100 µM | GI50 (SK-MEL-5 melanoma) > 100 µM | GI50 (HL-60(TB) leukemia) > 100 µM | GI50 (HCC-2998 colon) > 100 µM | GI50 (SNB-19 CNS) > 100 µM | GI50 (NCI-H522 lung) > 100 µM | GI50 (TK-10 renal) > 100 µM | GI50 (SNB-75 CNS) > 100 µM | GI50 (SK-OV-3 ovarian) > 100 µM | GI50 (OVCAR-3 ovarian) > 100 µM | GI50 (SR leukemia) > 100 µM | GI50 (HS 578T breast) > 100 µM

O=S(=O)(CCNCc1ccc(-c2ccc3ncnc(Nc4ccc(OCc5cccc(F)c5)c(Cl)c4)c3c2)o1)c1ccccc1
active: GI50 (SK-OV-3 ovarian) 0.349 µM
> 25 µM: TGI (EKVX NSCLC) | TGI (RXF 393 renal) | TGI (BT-549 breast) | TGI (A498 renal) | TGI (HCT-116 colon) | TGI (K-562 leukemia) | TGI (T-47D breast) | TGI (NCI-H226 lung) | TGI (NCI-H23 lung) | TGI (786-0 renal) | TGI (NCI/ADR-RES ovarian) | TGI (PC-3 prostate) | TGI (SF-268 CNS) | TGI (U251 CNS) | TGI (M14 melanoma) | TGI (SW-620 colon) | TGI (OVCAR-8 ovarian) | TGI (A549 NSCLC) | TGI (COLO 205 colon) | TGI (NCI-H460 lung) | TGI (UACC-257 melanoma) | TGI (MALME-3M melanoma) | TGI (SK-MEL-28 melanoma) | TGI (SF-539 CNS) | TGI (CCRF-CEM leukemia) | TGI (HT29 colon) | TGI (SN12C renal) | TGI (HOP-62 NSCLC) | TGI (MOLT-4 leukemia) | TGI (UACC-62 melanoma) | TGI (RPMI-8226 leukemia) | TGI (ACHN renal) | TGI (SF-295 CNS) | TGI (KM12 colon) | TGI (MDA-MB-231 breast) | TGI (LOX IMVI melanoma) | TGI (OVCAR-5 ovarian) | TGI (OVCAR-4 ovarian) | TGI (UO-31 renal) | TGI (DU-145 prostate) | TGI (MDA-MB-435) | TGI (SK-MEL-2 melanoma) | TGI (HCT-15 colon) | TGI (IGROV1 ovarian) | TGI (CAKI-1 renal) | TGI (HOP-92 NSCLC) | TGI (MCF7 breast) | TGI (SK-MEL-5 melanoma) | TGI (HL-60(TB) leukemia) | TGI (HCC-2998 colon) | TGI (SNB-19 CNS) | TGI (NCI-H522 lung) | TGI (TK-10 renal) | TGI (SNB-75 CNS) | TGI (SK-OV-3 ovarian) | TGI (OVCAR-3 ovarian) | TGI (SR leukemia) | TGI (HS 578T breast)
inactive: GI50 (EKVX NSCLC) 3.44 µM | GI50 (RXF 393 renal) > 25 µM | GI50 (BT-549 breast) > 25 µM | GI50 (A498 renal) > 14.6 µM | GI50 (HCT-116 colon) > 25 µM | GI50 (K-562 leukemia) > 25 µM | GI50 (T-47D breast) 2.21 µM | GI50 (NCI-H226 lung) > 25 µM | GI50 (NCI-H23 lung) > 25 µM | GI50 (786-0 renal) > 25 µM | GI50 (NCI/ADR-RES ovarian) > 25 µM | GI50 (PC-3 prostate) > 25 µM | GI50 (SF-268 CNS) > 25 µM | GI50 (U251 CNS) > 25 µM | GI50 (M14 melanoma) > 25 µM | GI50 (SW-620 colon) > 25 µM | GI50 (OVCAR-8 ovarian) > 25 µM | GI50 (A549 NSCLC) > 25 µM | GI50 (COLO 205 colon) > 25 µM | GI50 (NCI-H460 lung) > 25 µM | GI50 (UACC-257 melanoma) > 25 µM | GI50 (MALME-3M melanoma) > 25 µM | GI50 (SK-MEL-28 melanoma) > 25 µM | GI50 (SF-539 CNS) > 25 µM | GI50 (CCRF-CEM leukemia) > 23.1 µM | GI50 (HT29 colon) > 25 µM | GI50 (SN12C renal) > 25 µM | GI50 (HOP-62 NSCLC) > 25 µM | GI50 (MOLT-4 leukemia) > 25 µM | GI50 (UACC-62 melanoma) > 25 µM | GI50 (RPMI-8226 leukemia) > 25 µM | GI50 (ACHN renal) 18.9 µM | GI50 (SF-295 CNS) > 25 µM | GI50 (KM12 colon) > 25 µM | GI50 (MDA-MB-231 breast) > 25 µM | GI50 (LOX IMVI melanoma) > 25 µM | GI50 (OVCAR-5 ovarian) > 25 µM | GI50 (OVCAR-4 ovarian) > 25 µM | GI50 (UO-31 renal) 9.06 µM | GI50 (DU-145 prostate) > 25 µM | GI50 (MDA-MB-435) > 25 µM | GI50 (SK-MEL-2 melanoma) > 25 µM | GI50 (HCT-15 colon) > 25 µM | GI50 (IGROV1 ovarian) > 23.6 µM | GI50 (CAKI-1 renal) 6.05 µM | GI50 (HOP-92 NSCLC) 14.9 µM | GI50 (MCF7 breast) > 25 µM | GI50 (SK-MEL-5 melanoma) > 20.5 µM | GI50 (HL-60(TB) leukemia) > 25 µM | GI50 (HCC-2998 colon) > 25 µM | GI50 (SNB-19 CNS) > 25 µM | GI50 (NCI-H522 lung) > 19.5 µM | GI50 (TK-10 renal) > 13.2 µM | GI50 (SNB-75 CNS) > 25 µM | GI50 (OVCAR-3 ovarian) > 25 µM | GI50 (SR leukemia) > 25 µM | GI50 (HS 578T breast) > 25 µM
